# Reference: paper PMC6397271 (Scientific Reports, 2019)
# Like-named read-outs stand apart in the source and are kept apart here.
# Experiments:
# [1] = system: bacterial strain not named; experiment: Raw data of the MIC measurement (absorbance); assay type: cell-based; details: concentration marked (MIC) in raw absorbance data
# Experimental: The strains were grown in Mueller-Hinton broth (MH cation-adjusted, Becton Dickinson) or Brain Heart Infusion broth (BHI, Becton Dickinson), respectively. The cultivation was carried out in an aerobic atmosphere at 37 °C for 24 hours and, afterwards, the bacterial cultures were diluted in geometric progression with a proper broth. Next, 100 µl of each dilution was inoculated in an agar plate and incubated at 37 °C for 24 h. The next procedures included determination of Colony Forming Units (CFU)/ml and minimal inhibitory concentration (MIC) of the compounds in question. The latter procedure was carried out according to the microbroth dilution technique using 96-well plates. The MICs were evaluated by using the metabolic assay based on the resazurin dye. The assay was performed in triplicates.
# [2] = system: sheep erythrocytes; experiment: Erythrocyte lysis assay; assay type: cell-based; details: 37 °C, 1 hour, A450 nm; for cell lysis (haemolysis): 10^8 cells/ml, vs 4% Triton X-100, triplicates
# Experimental: The protocol of the lysis assay is presented below.
# To obtain sheep erythrocytes, 5 ml of fresh blood was centrifuged at 1000 × g for 10 min and washed 3 times with 0.9% NaCl. Cell suspension (final concentration of 10^8 cells/ml) in a volume of 75 µl was added to each well of the 96-well microtiter plate and incubated at 37 °C in the presence of the tested compounds. The range of their concentrations was 100–0.049 µM (diluted in saline solution), which included that of MIC values for the tested strains of the bacteria.
# Plates with samples were incubated at 37 °C for 1 hour and then centrifuged at 1000 × g for 10 min to separate the unlysed erythrocytes. Next, the supernatant was transferred to a new plate. The absorbance (A) was measured spectrophotometrically at 450 nm of wavelength. The experiments were performed in triplicates.
# The haemolysis percentage was calculated according to the equation presented by Sharma et al.[43]. The percentage of haemolysis = [(A450nm of test compound treated sample-A450nm of buffer treated sample)/(A450nm of 4%TritonX-100 treated samples-A450nm of buffer treated sample)] × 100.
# [3] = system: S. aureus MRSA N315; experiment: microbe, parasite or virus in culture; assay type: cell-based, Staphylococcus aureus
# How it was run: (§1)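 MICs were measured by microbroth dilution against MRSA in cation-adjusted Mueller-Hinton broth and enterococci in Brain Heart Infusion broth. Viability was read with resazurin dye.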
# [4] = system: S. aureus MRSA 12673; experiment: microbe, parasite or virus in culture; assay type: cell-based, Staphylococcus aureus; details: for MIC: raw MIC
# How it was run: as §1
# [5] = system: S. aureus MRSA hetero-VISA 6347; experiment: microbe, parasite or virus in culture; assay type: cell-based, Staphylococcus aureus
# How it was run: as §1
# [6] = system: Enterococcus faecalis 3937158; experiment: microbe, parasite or virus in culture; assay type: cell-based
# How it was run: as §1
# [7] = system: Enterococcus faecium 3934825; experiment: microbe, parasite or virus in culture; assay type: cell-based
# How it was run: as §1
# [8] = BBB penetration, fluorescence microscopy of brain slices; assay type: in vivo, BALB/c male mice; details: iv tail vein 60 mg/kg, 2 hours, coronal cryo-sections, excitation 490 nm, emission 521 nm, n = 5
# Experimental: In vivo experiments were performed on BALB/c male mice weighing between 20 and 30 g (the mouse model is widely used for estimation of drug BBB penetration). The animals (obtained from TAZD-CBU) were kept in a 12-hour day and night cycle at room temperature (20–22 °C), humidity 55–56% and fed with a standard diet and water ad libitum for at least 1 week before the experiment. Body temperature and weight were recorded on a regular daily schedule. It is confirmed that all procedures were carried out according to the guidelines outlined by the European Community Council Directive 2010/63/EEC, and they were approved by the local Ethical Committee Resolution 26/2014 (Bydgoszcz, Poland).
# Fl-[Lys^7(PEG4-Van)]TP10 was administered to the mouse (n = 5) tail vein at a dose of 60 mg/kg in a volume of 100 μl of saline.
# After 2 hours, the mice were sacrificed (by isoflurane overdose) and their brains were immediately removed from the cranium and cooled to 4 °C. Five, […] coronal cryo-sections of the brain were made starting from the frontal pole and moving to the occipital pole (HM 450 Sliding Microtome). The presence of the compound in question in the brain slices was visualized using a fluorescence microscope (Delta Optical IB-100, Delta Optical, Poland) at a fluorescence excitation and emission of 490 nm and 521 nm, respectively. […]
# [9] = microbroth dilution, 96-well, resazurin, 37 °C, 24 h, mean ± SD, at least three independent experiments in triplicates
# [10] = raw MIC, first block, test a, repetition 1, read-out: MIC1a
# [11] = raw MIC, first block, test a, repetition 2, read-out: MIC2a
# [12] = raw MIC, first block, test a, repetition 3, read-out: MIC3a
# [13] = raw MIC, first block, test b, repetition 1, read-out: MIC1b
# [14] = raw MIC, first block, test b, repetition 2, read-out: MIC2b
# [15] = raw MIC, first block, test b, repetition 3, read-out: MIC3b
# [16] = raw MIC, test a, repetition 1, read-out: MIC1a
# [17] = raw MIC, test a, repetition 2, read-out: MIC2a
# [18] = raw MIC, test a, repetition 3, read-out: MIC3a
# [19] = raw MIC, test b, repetition 1, read-out: MIC1b
# [20] = raw MIC, test b, repetition 2, read-out: MIC2b
# [21] = raw MIC, test b, repetition 3, read-out: MIC3b
# [22] = same test as μM value, mean ± SD
compound,measurement,setting,value
"CC[C@H](C)[C@H](NC(=O)[C@H](CCCCN)NC(=O)[C@H](CCCCN)NC(=O)[C@H](C)NC(=O)[C@H](CC(C)C)NC(=O)[C@H](C)NC(=O)[C@H](C)NC(=O)[C@H](CC(C)C)NC(=O)[C@H](C)NC(=O)[C@H](CCCCN)NC(=O)[C@H](CC(C)C)NC(=O)[C@H](CC(N)=O)NC(=O)[C@@H](NC(=O)[C@H](CCCCN)NC(=O)CNC(=O)[C@H](CC(C)C)NC(=O)[C@H](CC(C)C)NC(=O)[C@H](Cc1ccc(O)cc1)NC(=O)CNC(=O)[C@H](C)NC(=O)c1cn(CCOCCOCCOCCOCCC(=O)N[C@@]2(C)C[C@H](O[C@H]3[C@H](Oc4c5cc6cc4Oc4ccc(cc4Cl)[C@@H](O)[C@@H](NC(=O)[C@@H](CC(C)C)NC)C(=O)N[C@@H](CC(N)=O)C(=O)N[C@H]6C(=O)N[C@H]4C(=O)N[C@H](C(=O)N[C@H](C(=O)O)c6cc(O)cc(O)c6-c6cc4ccc6O)[C@H](O)c4ccc(c(Cl)c4)O5)O[C@H](CO)[C@@H](O)[C@@H]3O)O[C@@H](C)[C@H]2O)nn1)[C@@H](C)CC)C(=O)N[C@@H](CC(C)C)C(N)=O [conjugate II, Van-PEG4-TP10]",MIC (marked in raw data),[1],"1,56 µM"
same,cell lysis (haemolysis),[2]; 12.5 µM,5%
same,cell lysis (haemolysis),[2]; 100 µM,77%
same,hemolysis at MIC concentrations,[2]; 6.25–0.78 μM,lack of hemolysis
same,MIC,[3]; [9],1.6 ± 0.8 µM
same,MIC,[3]; [10],1.6 µM
same,MIC,[3]; [11],3.2 µM
same,MIC,[3]; [12],1.6 µM
same,MIC,[3]; [13],1.6 µM
same,MIC,[3]; [14],3.2 µM
same,MIC,[3]; [15],1.6 µM
same,MIC,[3]; [16],6.33 µM
same,MIC,[3]; [17],12.66 µM
same,MIC,[3]; [18],6.33 µM
same,MIC,[3]; [19],6.33 µM
same,MIC,[3]; [20],6.33 µM
same,MIC,[3]; [21],6.33 µM
same,MIC in (μg/ml),[3]; [22],6.3 ± 2.6 µg/mL
same,MIC,"[4]; first block, test a, repetition 1, read-out: MIC1a",1.6 µM
same,MIC,"[4]; first block, test a, repetition 2, read-out: MIC2a",3.2 µM
same,MIC,"[4]; first block, test a, repetition 3, read-out: MIC3a",1.6 µM
same,MIC,"[4]; first block, test b, repetition 1, read-out: MIC1b",1.6 µM
same,MIC,"[4]; first block, test b, repetition 2, read-out: MIC2b",1.6 µM
same,MIC,"[4]; first block, test b, repetition 3, read-out: MIC3b",1.6 µM
same,MIC,"[4]; test a, repetition 1, read-out: MIC1a",6.33 µM
same,MIC,"[4]; test a, repetition 2, read-out: MIC2a",12.66 µM
same,MIC,"[4]; test a, repetition 3, read-out: MIC3a",6.33 µM
same,MIC,"[4]; test b, repetition 1, read-out: MIC1b",6.33 µM
same,MIC,"[4]; test b, repetition 2, read-out: MIC2b",6.33 µM
same,MIC,"[4]; test b, repetition 3, read-out: MIC3b",6.33 µM
same,MIC in (μg/ml),[4]; [22],6.3 ± 2.6 µg/mL
same,MIC,[5]; [9],3.1 ± 0.8 µM
same,MIC,[5]; [10],3.1 µM
same,MIC,[5]; [11],3.1 µM
same,MIC,[5]; [12],1.56 µM
same,MIC,[5]; [13],1.56 µM
same,MIC,[5]; [14],3.1 µM
same,MIC,[5]; [15],1.56 µM
same,MIC,[5]; [16],12.26 µM
same,MIC,[5]; [17],12.26 µM
same,MIC,[5]; [18],6.13 µM
same,MIC,[5]; [19],6.13 µM
same,MIC,[5]; [20],12.26 µM
same,MIC,[5]; [21],6.13 µM
same,MIC in (μg/ml),[5]; [22],12.3 ± 3.6 µg/mL
same,MIC,[6]; [9],25.0 ± 6.5 µM
same,MIC,[6]; [10],25 µM
same,MIC,[6]; [11],25 µM
same,MIC,[6]; [12],12.5 µM
same,MIC,[6]; [13],12.5 µM
same,MIC,[6]; [14],25 µM
same,MIC,[6]; [15],25 µM
same,MIC,[6]; [16],98.91 µM
same,MIC,[6]; [17],98.91 µM
same,MIC,[6]; [19],98.91 µM
same,MIC,[6]; [20],98.91 µM
same,MIC,[6]; [21],98.91 µM
same,MIC in (μg/ml),[6]; [22],98.9 ± 21.8 µg/mL
same,MIC,[7]; [9],25.0 ± 5.1 µM
same,MIC,[7]; [10],25 µM
same,MIC,[7]; [11],25 µM
same,MIC,[7]; [12],12.5 µM
same,MIC,[7]; [13],25 µM
same,MIC,[7]; [14],25 µM
same,MIC,[7]; [15],25 µM
same,MIC,[7]; [16],98.91 µM
same,MIC,[7]; [17],98.91 µM
same,MIC,[7]; [18],49.46 µM
same,MIC,[7]; [19],98.91 µM
same,MIC,[7]; [20],98.91 µM
same,MIC,[7]; [21],98.91 µM
same,MIC in (μg/ml),[7]; [22],98.9 ± 20.2 µg/mL
Fl-[Lys^7(PEG4-Van)]TP10 [conjugate IVa],presence in mouse brain slices (fluorescence),[8],presence of the conjugate coupled with fluorescein in the brain
